# Laboratory results from patent US20190161499A1, “PESTICIDALLY ACTIVE 1,2,4-TRIAZOLE DERIVATIVES” (SYNGENTA PARTICIPATIONS AG, priority 2015, published 2019).
# Columns and labels:
# Assay type in all cases: in vivo
# [1] = test system: Diabrotica Balteata (Corn Root Worm); assay: Comparison: insecticidal activity against Diabrotica balteata; conditions: 96 h, 4 days after infestation
# Experimental: (§1) Compound B is disclosed in WO2013/063282 as an example on page 114 (Table 4, M is CH(Me), Rx=2-F, Ry=4-Cl) and compound C is disclosed in WO 2013/173218 as example on page 123 (Table 14, M is CH(Me), R4a=2-F, R4b=4-Cl). The activities of compounds B and C to treat different pests are compared with the activities of compound A according to the present invention. The tests are carried out at different concentrations (ppm).
# c) Insecticidal Activity Against Diabrotica Balteata (Corn Root Worm):
# Maize sprouts, placed on an agar layer in 24-well microtiter plates were treated with aqueous test solutions prepared from 10,000 ppm DMSO stock solutions by spraying. After drying, the plates were infested with L2 larvae (6 to 10 per well). The samples were assessed for mortality and growth inhibition in comparison to untreated samples 4 days after infestation.
# [2] = test system: Spodoptera littoralis (Egyptian Cotton Leaf Worm); assay: Comparison: insecticidal activity against Spodoptera littoralis; conditions: 72 h, 3 days after infestation
# Experimental: as §1
# a) Insecticidal Activity Against Spodoptera littoralis (Egyptian Cotton Leaf Worm)
# Cotton leaf discs were placed onto agar in 24-well microtiter plates and sprayed with aqueous test solutions prepared from 10,000 ppm DMSO stock solutions. After drying the leaf discs were infested with five L1 larvae. The samples were assessed for mortality 3 days after infestation.
# [3] = test system: Plutella xylostella (Diamond Back Moth); assay: Comparison: insecticidal activity against Plutella xylostella; conditions: 120 h, 5 days after infestation
# Experimental: as §1
# b) Insecticidal Activity Against Plutella xylostella (Diamond Back Moth):
# 24-well microtiter plates with artificial diet were treated with aqueous test solutions prepared from 10,000 ppm DMSO stock solutions by pipetting. After drying, the plates were infested with L2 larvae (10 to 15 per well). The samples were assessed for mortality and growth inhibition in comparison to untreated samples 5 days after infestation.
SMILES,mortality at 12.5 ppm [1] [%],mortality at 50 ppm [1] [%],mortality at 200 ppm [1] [%],mortality at 12.5 ppm [2] [%],mortality at 50 ppm [2] [%],mortality at 200 ppm [2] [%],mortality at 12.5 ppm [3] [%],mortality at 50 ppm [3] [%],mortality at 200 ppm [3] [%]
CC1CCN(Cc2nn(-c3ccc(Cl)cc3)nc2-c2ccccc2F)CC1 [Compound C],0,100,100,0,0,50,0,0,0
CC1CCN(Cc2cn(-c3ccc(Cl)cc3)nc2-c2ccccc2F)CC1 [Compound B],0,100,100,0,0,100,0,0,0
CC1CCN(Cc2nc(-c3ccc(Cl)cc3)nn2-c2ccccc2F)CC1 [A],100,100,100,100,100,100,50,100,100
